Measured values as given in patent US5908851A (priority 1995, dated 1999).
pIC50: −log10 of the molar value. Like-named read-outs stand apart in the source and are kept apart here.

Assays:
[1] = target: T1, recombinant matrilysin (PUMP-1) (Homo sapiens, UniProt P09237); test: Inhibition of recombinant matrilysin (PUMP-1, MMP-7), 14C-acetylated casein; format: biochemical; conditions: 37° C., 16 hours, pH 7.6; read-out: In vitro inhibitory activity IC50, Matrilysin (MMP-7)
T1 sequence (P09237 95-267): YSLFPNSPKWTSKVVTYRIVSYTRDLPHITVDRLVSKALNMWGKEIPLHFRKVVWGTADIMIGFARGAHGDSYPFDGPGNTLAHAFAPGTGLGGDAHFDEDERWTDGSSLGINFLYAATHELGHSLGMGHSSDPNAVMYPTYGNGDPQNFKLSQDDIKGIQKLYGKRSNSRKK

72 kDa gelatinase [2] = target: T2, 72 kDa gelatinase (Homo sapiens, UniProt P08253); test: biochemical
T2 sequence (P08253 110-660): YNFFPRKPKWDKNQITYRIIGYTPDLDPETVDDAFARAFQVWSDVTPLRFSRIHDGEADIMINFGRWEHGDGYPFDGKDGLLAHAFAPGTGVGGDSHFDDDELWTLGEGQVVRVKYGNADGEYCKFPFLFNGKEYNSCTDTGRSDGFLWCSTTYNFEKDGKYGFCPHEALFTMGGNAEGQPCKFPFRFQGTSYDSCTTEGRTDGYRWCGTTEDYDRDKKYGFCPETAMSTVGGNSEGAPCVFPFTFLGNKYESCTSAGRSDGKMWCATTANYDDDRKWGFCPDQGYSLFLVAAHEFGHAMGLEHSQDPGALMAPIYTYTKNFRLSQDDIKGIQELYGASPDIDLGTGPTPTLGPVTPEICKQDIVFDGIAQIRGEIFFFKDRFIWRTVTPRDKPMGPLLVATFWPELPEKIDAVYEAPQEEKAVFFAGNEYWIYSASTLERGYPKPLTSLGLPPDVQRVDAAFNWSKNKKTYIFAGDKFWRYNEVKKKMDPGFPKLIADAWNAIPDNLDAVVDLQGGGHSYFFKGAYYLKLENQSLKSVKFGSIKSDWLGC

[3] = target: T3, human fibroblast collagenase (Homo sapiens, UniProt P03956); test: Inhibition of human fibroblast collagenase (MMP-1), 14C-acetylated collagen; format: biochemical; conditions: for pIC50: 37° C., 16 hours, pH 7.5, read-out: In vitro inhibitory activity IC50, Fib. Collag. (MMP-1); for inhibition at 100 µM: read-out: % I (inhibition), Fib. Collag. (MMP-1)
T3 sequence (P03956 100-469): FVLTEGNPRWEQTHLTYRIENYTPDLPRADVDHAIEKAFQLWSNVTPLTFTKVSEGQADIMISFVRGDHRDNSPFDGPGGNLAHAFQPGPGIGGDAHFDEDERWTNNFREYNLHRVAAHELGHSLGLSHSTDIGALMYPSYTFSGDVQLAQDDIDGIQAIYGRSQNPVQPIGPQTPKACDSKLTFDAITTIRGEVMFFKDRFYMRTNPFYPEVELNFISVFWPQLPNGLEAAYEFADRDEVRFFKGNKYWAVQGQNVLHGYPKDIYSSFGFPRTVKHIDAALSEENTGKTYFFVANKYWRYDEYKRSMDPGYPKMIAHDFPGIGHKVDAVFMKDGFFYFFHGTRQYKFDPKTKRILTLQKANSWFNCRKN

stromelysin-1 [4] = target: T4, stromelysin-1 (Homo sapiens, UniProt P08254); test: biochemical
T4 sequence (P08254 100-477, species assumed): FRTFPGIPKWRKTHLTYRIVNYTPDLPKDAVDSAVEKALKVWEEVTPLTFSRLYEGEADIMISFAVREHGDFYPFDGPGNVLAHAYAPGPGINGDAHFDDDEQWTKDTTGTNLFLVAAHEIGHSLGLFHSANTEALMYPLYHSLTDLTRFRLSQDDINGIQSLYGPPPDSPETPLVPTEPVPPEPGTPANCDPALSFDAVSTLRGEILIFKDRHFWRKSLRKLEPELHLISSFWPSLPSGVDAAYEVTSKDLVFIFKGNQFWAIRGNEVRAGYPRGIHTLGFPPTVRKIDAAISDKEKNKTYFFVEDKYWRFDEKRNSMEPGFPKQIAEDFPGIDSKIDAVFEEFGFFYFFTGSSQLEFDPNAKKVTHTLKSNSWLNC

stromelysin-1 [5] = target: T4, stromelysin-1; conditions: read-out: In vitro inhibitory activity IC50, Stromelysin-1 (MMP-3); 37° C., 16 hours, pH 7.5
72 kDa gelatinase [6] = target: T2, 72 kDa gelatinase; conditions: read-out: In vitro inhibitory activity IC50, Gelatinase A (MMP-2); 37° C., 16 hours; enzyme from RPMI-7951 cells

pIC50 [1]	pIC50 (72 kDa gelatinase [2])	pIC50 [3]	pIC50 (stromelysin-1 [4])	Compound	inhibition at 100 µM (72 kDa gelatinase [2]; read-out: % I (inhibition), Gelatinase A (MMP-2))	inhibition at 100 µM [3]	pIC50 (stromelysin-1 [5])	pIC50 (72 kDa gelatinase [6])
7.70				C=CC[C@H](C(=O)NO)[C@@H](CC(C)C)C(=O)N[C@H](C(=O)NC)C(C)(C)C [Comparator 2, 2S-Allyl-N^4-(2,2-dimethyl-1S-methylcarbamoyl-propyl)-N^1-hydroxy-3R-isobutyl-succinamide, reference compound]				
8.40	5.52	6.22	7.30	CC(C)C[C@@H](C(=O)N[C@H](C(=O)NC(c1ccccc1)c1ccccc1)C(C)(C)C)[C@H](O)C(=O)NO [Example 1, N^4-[1S-(Benzhydryl-carbamoyl)-2,2-dimethyl-propyl]-2S,N^1-dihydroxy-3R-isobutyl-succinamide]				
7.15	4.77	5.70	6.70	CC(C)C[C@@H](C(=O)N[C@H](C(=O)NC1c2ccccc2-c2ccccc21)C(C)(C)C)[C@H](O)C(=O)NO [Example 2, N^4-[1S-(9H-Fluoren-9-ylcarbamoyl)-2,2-dimethyl-propyl]-2S,N^1-dihydroxy-3R-isobutyl-succinamide]				
8.00	5.70	6.40	6.70	CC(C)C[C@@H](C(=O)N[C@H](C(=O)NC(c1ccccc1)c1ccc(Cl)cc1)C(C)(C)C)[C@H](O)C(=O)NO (stereo partly drawn) [Example 3, N^4-(1S-{[(4-Chloro-phenyl)-phenyl-methyl]-carbamoyl}-2,2-dimethyl-propyl)-2R,N^1-dihydroxy-3R-isobutyl-succinamide]				
8.05	6.30	6.40	7.22	CC(C)C[C@@H](C(=O)N[C@H](C(=O)NC(c1ccccc1)c1ccc(F)cc1)C(C)(C)C)[C@H](O)C(=O)NO (stereo partly drawn) [Example 4, N^4-(1S-{[(4-Fluoro-phenyl)-phenyl-methyl]-carbamoyl}-2,2-dimethyl-propyl)-2S,N^1-dihydroxy-3-isobutyl-succinamide]				
8.05	6.22	6.15	7.00	CC(C)C[C@@H](C(=O)N[C@H](C(=O)NC(c1ccccc1)c1ccccc1F)C(C)(C)C)[C@H](O)C(=O)NO (stereo partly drawn) [Example 5, N^4-(1S-{[(2-Fluoro-phenyl)-phenyl-methyl]-carbamoyl}-2,2-dimethyl-propyl)-2S,N^1-dihydroxy-3R-isobutyl-succinamide]				
7.82	6.22	5.70	6.70	CC(C)C[C@@H](C(=O)N[C@H](C(=O)NC(c1ccccc1)c1ccccc1)C(C)(C)O)[C@H](O)C(=O)NO [Example 6, N^4-[1S-(Benzhydryl-carbamoyl)-2-hydroxy-2-methyl-propyl]-2S, N^1-dihydroxy-3R-isobutyl-succinamide]				
8.05	6.00	6.15	7.70	CO[C@H](C(=O)NO)[C@@H](CC(C)C)C(=O)N[C@H](C(=O)NC(c1ccccc1)c1ccccc1)C(C)(C)O [Example 8]				
6.00		5.00		CC(C)(C)[C@H](NC(=O)[C@H](CCCc1ccccc1)[C@H](O)C(=O)NO)C(=O)NC(c1ccccc1)c1ccccc1 [Example 10, N^4-[1S-(Benzhydryl-carbamoyl)-2,2-dimethyl-propyl]-2S,N^1-dihydroxy-3R-(3-phenyl-propyl)-succinamide]				
7.70	6.00	6.52	6.70	CC(C)C[C@@H](C(=O)N[C@H](C(=O)NC(c1ccccn1)c1ccccn1)C(C)(C)C)[C@H](O)C(=O)NO [Example 11, N^4 -{1S-[(Di-pyridin-2-yl-methyl)-carbamoyl]-2,2-dimethyl-propyl}-2S,N^1-dihydroxy-3R-isobutyl-succinamide]				
7.52	4.40	6.10	7.10	C=CC[C@H](C(=O)NO)[C@@H](CC(C)C)C(=O)N[C@H](C(=O)NC(c1ccccc1)c1ccccc1)C(C)(C)C [Example 12, 2S-Allyl-N^4-[1S-(benzhydryl-carbamoyl)-2,2-dimethyl-propyl]-N^1-hydroxy-3R-isobutyl-succinamide]				
6.40	4.70	4.52	7.22	C=CC[C@H](C(=O)NO)[C@@H](CCCCCCCC)C(=O)N[C@H](C(=O)NC(c1ccccc1)c1ccccc1)C(C)(C)C [Example 13, 2S-Allyl-N^4-[1S-(benzhydryl-carbamoyl)-2,2-dimethyl-propyl]-N^1-hydroxy-3R-octyl-succinamide]				

Compound	pIC50 [1]	pIC50 (72 kDa gelatinase [2])	pIC50 [3]	pIC50 (stromelysin-1 [4])	inhibition at 100 µM (72 kDa gelatinase [2]; read-out: % I (inhibition), Gelatinase A (MMP-2))	inhibition at 100 µM [3]	pIC50 (stromelysin-1 [5])	pIC50 (72 kDa gelatinase [6])
CO[C@H](C(=O)O)[C@@H](CC(C)C)C(=O)N[C@H](C(=O)NC(c1ccccc1)c1ccccc1)C(C)(C)O [Example 7, N^4-[1S-(Benzhydryl-carbamoyl)-2-hydroxy-2-methyl-propylcarbamoyl]-2S-methoxy-5R-methyl-hexanoic acid]				4.70	50%	40%		
CC(C)(C)[C@H](NC(=O)[C@H](C/C=C/c1ccccc1)[C@H](O)C(=O)NO)C(=O)NC(c1ccccc1)c1ccccc1 [Example 9, N^4-[1S-(Benzhydryl-carbamoyl)-2,2-dimethyl-propyl]-2S,N^1-dihydroxy-3R-(3-phenyl-allyl)-succinamide]	6.30					30%	6.10	4.40
